Laboratory results reported in patent US7560482B2, “Inhibitors of plasmepsins” (The Johns Hopkins University, priority 2001, dated 2009).
Read-outs that look alike come from different tables or passages of the source.

Legend:
[1] = target: T1, plasmepsin II from Plasmodium falciparum (Plm II) (Plasmodium falciparum, UniProt P46925); assay: Plasmepsin II inhibition assay, hydrolysis of chromogenic substrate; type: biochemical; conditions: for Discrimination Factor: Fold Selectivity for Plasmepsin II over Cathepsin D: ratio of the Ki for Cathepsin D to the Ki for Plasmepsin II
T1 construct: made in house; host or cells: Escherichia coli
T1 sequence (P46925 125-453): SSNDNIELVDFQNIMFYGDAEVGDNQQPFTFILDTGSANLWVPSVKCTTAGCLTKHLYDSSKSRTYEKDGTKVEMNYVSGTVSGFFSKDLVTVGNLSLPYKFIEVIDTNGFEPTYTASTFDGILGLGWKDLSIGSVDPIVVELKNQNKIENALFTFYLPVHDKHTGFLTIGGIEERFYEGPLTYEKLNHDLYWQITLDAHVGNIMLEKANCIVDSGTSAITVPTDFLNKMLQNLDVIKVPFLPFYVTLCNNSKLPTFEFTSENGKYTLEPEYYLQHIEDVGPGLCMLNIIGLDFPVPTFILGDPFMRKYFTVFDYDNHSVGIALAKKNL
Procedure: FIG. 7A-C. Inhibition of Plasmepsin II from Plasmodium falciparum by KNI-10033, KNI-10030 and KNI-10006 at 20° C. in 10 mM sodium citrate, 100 mM NaCl, 2% DMSO, pH 4.0. The inhibition constants are 3 nM, 11 nM and 0.5 rLM respectively.
(§1) The specific activity of plasmepsin II from Plasmodium falciparum (Plm II) cloned in and purified from Escherchia coli and commercially available human Cathepsin D were measured by following the hydrolysis of the chromogenic substrate Ala-Leu-Glu-Arg-Thr-nPhe-Phe-Ser-Phe-Pro-Thr-OH (California Peptide Research Inc., Napa, Calif.). The decrease in absorbance upon hydrolysis is monitored at 300 nm. Typical Plasmepsin II preparations hydrolyze chromogenic substrate at 4-5 s^−1 at 37° C. The inhibition assays were performed at 25° C. in 10 mM sodium formate, 2% DMSO, pH 4.0. These pH conditions mimic the conditions in the food vacuole of the parasite. […] Inhibition constants (Ki) for the inhibitors are obtained at the desired temperature and solvent conditions by measuring the rate of substrate hydrolysis at increasing amounts of inhibitors. Exemplary results from three compounds (KNI-10033, KNI-10030 and KNI-10006) are shown in FIG. 7A-C, and the results obtained with all KNI compounds tested are given in Table 1.

human Cathepsin D = target: T2, human Cathepsin D (Homo sapiens, UniProt P07339); assay: Cathepsin D inhibition assay, hydrolysis of chromogenic substrate; type: biochemical
T2 construct: purchased
T2 sequence (P07339 65-412): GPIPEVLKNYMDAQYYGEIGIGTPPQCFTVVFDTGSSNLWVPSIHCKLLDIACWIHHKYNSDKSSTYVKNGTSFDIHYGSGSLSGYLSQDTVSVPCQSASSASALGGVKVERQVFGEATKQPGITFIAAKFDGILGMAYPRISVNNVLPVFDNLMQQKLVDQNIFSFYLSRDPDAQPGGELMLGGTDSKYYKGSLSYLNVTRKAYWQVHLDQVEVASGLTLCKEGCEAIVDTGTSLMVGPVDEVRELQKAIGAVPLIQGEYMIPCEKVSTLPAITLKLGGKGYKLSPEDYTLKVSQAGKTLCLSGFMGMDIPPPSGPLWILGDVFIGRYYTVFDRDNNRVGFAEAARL
Procedure: as §1

[2] = 25° C., 10 mM sodium formate, 2% DMSO, pH 4.0, fit to competitive inhibition, read-out: Ki Plm II
[3] = 25° C., 10 mM sodium formate, 2% DMSO, pH 4.0, fit to competitive inhibition, read-out: Ki CatD
[4] = 20° C., 10 mM sodium citrate, 100 mM NaCl, 2% DMSO, pH 4.0, read-out: inhibition constant, Plasmepsin II (FIG. 7)
[5] = Table 2, read-out: Ki Plasmepsin II
[6] = Table 2, read-out: Ki Cathepsin D

| Ki [1, 2] [nM] | Ki (human Cathepsin D; [3]) [nM] | Ki [1, 4] [nM] | Ki [1, 5] [nM] | Discrimination Factor: Fold Selectivity for Plasmepsin II over Cathepsin D [1] | Ki (human Cathepsin D; [6]) [nM] | inhibition constants against Plasmepsin II, in words [1] | Ki (human Cathepsin D; read-out: Ki for Cathepsin D) [nM] | Compound |
| --- | --- | --- | --- | --- | --- | --- | --- | --- |
| 1770 ± 154 | 1280 ± 161 |  |  |  |  |  |  | CC(C)C(NC(=O)COc1ccccc1)C(=O)NC(Cc1ccccc1)C(O)C(=O)N1CSC(C)(C)C1C(=O)NC(C)(C)C (centres unmarked) [KNI-10056] |
| 1510 ± 125 | 2580 ± 682 |  |  |  |  |  |  | CC(C)C(NC(=O)OCc1ccccc1)C(=O)NC(Cc1ccccc1)C(O)C(=O)N1CSC(C)(C)C1C(=O)NC(C)(C)C (centres unmarked) [KNI-10049] |
| 273 ± 41 | 1640 ± 146 |  |  |  |  |  |  | Cc1cccc(C)c1OCC(=O)NC(Cc1ccccc1)C(O)C(=O)N1CSC(C)(C)C1C(=O)NCc1ccc(O)cc1 (centres unmarked) [KNI-10054] |
| 1080 ± 165 | 6160 ± 671 |  |  |  |  |  |  | CC(C)(C)NC(=O)[C@H]1N(C(=O)[C@@H](O)[C@H](Cc2ccccc2)NC(=O)COc2cccc(Cl)c2)CSC1(C)C [KNI-10045] |
| 55 ± 7 | 252 ± 53 |  |  |  |  |  |  | Cc1cccc(C)c1OCC(=O)N[C@@H](Cc1ccccc1)[C@H](O)C(=O)N1CSC(C)(C)[C@H]1C(=O)NCc1ccccc1O [KNI-10047] |
| 1170 ± 71 | 6280 ± 981 |  |  |  |  |  |  | CC(C)(C)NC(=O)C1N(C(=O)C(O)C(Cc2ccccc2)NC(=O)C(CCC(N)=O)NC(=O)COc2cccc3cnccc23)CSC1(C)C (centres unmarked) [KNI-10055] |
| 22 ± 5 | 53 ± 8 |  | 22 | 2.4 | 53 | nanomolar and subnanomolar range |  | Cc1cccc(C)c1OCC(=O)N[C@@H](Cc1ccccc1)[C@H](O)C(=O)N1CSC(C)(C)[C@H]1C(=O)N[C@H](CO)c1ccccc1 [KNI-10043] |

More lines, now with the values behind:

| Compound | Ki [1, 2] [nM] | Ki (human Cathepsin D; [3]) [nM] | Ki [1, 4] [nM] | Ki [1, 5] [nM] | Discrimination Factor: Fold Selectivity for Plasmepsin II over Cathepsin D [1] | Ki (human Cathepsin D; [6]) [nM] | inhibition constants against Plasmepsin II, in words [1] | Ki (human Cathepsin D; read-out: Ki for Cathepsin D) [nM] |
| --- | --- | --- | --- | --- | --- | --- | --- | --- |
| CC(C)[C@H](NC(=O)Cc1ccc2ccccc2c1)C(=O)N[C@@H](Cc1ccccc1)[C@H](O)C(=O)N1CSC(C)(C)[C@H]1C(=O)NC(C)(C)C [KNI-10029] | 860 ± 90 | 282 ± 39 |  |  |  |  |  |  |
| Cc1cccc(C)c1OCC(=O)N[C@@H](Cc1ccccc1)[C@H](O)C(=O)N1CSC(C)(C)[C@H]1C(=O)N[C@H](C)c1ccccc1 [KNI-10030] |  | 111 ± 15 | 11 | 11 | ~10 | 111 |  |  |
| Cc1cccc(C)c1OCC(=O)N[C@@H](Cc1ccccc1)[C@H](O)C(=O)N1CSC(C)(C)[C@H]1C(=O)N[C@@H]1c2ccccc2C[C@@H]1O [KNI-10007] | 71 ± 10 | 806 ± 600 |  |  |  |  |  |  |
| CC(C)(C)NC(=O)[C@H]1N(C(=O)[C@@H](O)[C@H](Cc2ccccc2)NC(=O)CC(C)(C)C(=O)O)CSC1(C)C [KNI-413] | 1390 ± 500 | 7260 ± 1400 |  |  |  |  |  |  |
| Cc1cccc(C)c1OCC(=O)N[C@@H](Cc1ccccc1)[C@H](O)C(=O)N1CSC(C)(C)[C@H]1C(=O)N[C@H]1CCc2ccccc21 [KNI-10026] | 15 ± 5 | 105 ± 18 |  | 15 | 7 | 105 | nanomolar and subnanomolar range |  |
| CC(C)[C@H](NC(=O)c1ccccn1)C(=O)N[C@@H](Cc1ccccc1)[C@H](O)C(=O)N1CSC(C)(C)[C@H]1C(=O)NC(C)(C)C [KNI-10003] | 1150 ± 190 | 970 ± 100 |  |  |  |  |  |  |
| CSC[C@H](NC(=O)COc1cccc2cnccc12)C(=O)N[C@@H](Cc1ccccc1)[C@H](O)C(=O)N1CSC(C)(C)[C@H]1C(=O)N[C@H]1Cc2ccccc2[C@H]1O [KNI-10033] |  | 40 ± 10 | 3 | 3 | ~13 |  | nanomolar and subnanomolar range | 40 |
| CC(C)(C)NC(=O)[C@@H]1CSCN1C(=O)[C@@H](O)[C@H](Cc1ccccc1)NC(=O)CC(C)(C)C(=O)O [KNI-391] | 12700 ± 1500 | 1350 ± 80 |  |  |  |  |  | 1350 |
| CC(C)[C@H](NC(=O)c1cc(=O)c2ccccc2o1)C(=O)N[C@@H](Cc1ccccc1)[C@H](O)C(=O)N1CSC(C)(C)[C@H]1C(=O)NC(C)(C)C [KNI-10002] | 244 ± 20 | 112 ± 20 |  |  |  |  |  |  |
| CC(C)[C@H](NC(=O)c1cccc2ccccc12)C(=O)N[C@@H](Cc1ccccc1)[C@H](O)C(=O)N1CSC(C)(C)[C@H]1C(=O)NC(C)(C)C [KNI-10027] | 1070 ± 90 | 1030 ± 200 |  |  |  |  |  |  |
